Test results taken from patent US20230384333A1 (priority 2020, published 2023).
“Also recorded” adds a separate entry of the source. Read-outs that look alike come from different tables or passages of the source.

Columns and labels:
psychLight2 [1] = assay type: cell-based, human
Experimental: Compounds unlikely to bind to the sensor should produce minimal to no response in either agonist or antagonist mode. Therefore, a ligand score was calculated as: […]

C57BL/6J mice = assay: Head-twitch response (HTR) assay; assay type: in vivo, mouse; conditions: i.p., multiple doses
Experimental: The HTR assay was performed as described previously using both male and female C57BL/6J mice (2 male and 2 female=4 total per treatment). The mice were obtained from The Jackson Laboratory (Sacramento, C.A.) and were approximately 8-weeks old at the time of the experiments. Compounds were administered (5 mL/kg, i.p.) using 0.9% saline as the vehicle. After injection, animals were placed into an empty cage (8″×13″×5″) and HTRs were videotaped, scored later by two blinded observers, and the results were averaged (interpersonnel kappas, Pearson correlation coefficient>0.91). Locomotion was assessed using AnyMaze automated tracking software.

psychLight1 [2] = target: psychLight1 (Homo sapiens, UniProt P28223, E264Q/I181A); assay: cell-based; assay type: cell-based
Chain of psychLight1 (Homo sapiens, UniProt P28223, E264Q/I181A) (P28223 whole entry I181A/E264Q, looked up): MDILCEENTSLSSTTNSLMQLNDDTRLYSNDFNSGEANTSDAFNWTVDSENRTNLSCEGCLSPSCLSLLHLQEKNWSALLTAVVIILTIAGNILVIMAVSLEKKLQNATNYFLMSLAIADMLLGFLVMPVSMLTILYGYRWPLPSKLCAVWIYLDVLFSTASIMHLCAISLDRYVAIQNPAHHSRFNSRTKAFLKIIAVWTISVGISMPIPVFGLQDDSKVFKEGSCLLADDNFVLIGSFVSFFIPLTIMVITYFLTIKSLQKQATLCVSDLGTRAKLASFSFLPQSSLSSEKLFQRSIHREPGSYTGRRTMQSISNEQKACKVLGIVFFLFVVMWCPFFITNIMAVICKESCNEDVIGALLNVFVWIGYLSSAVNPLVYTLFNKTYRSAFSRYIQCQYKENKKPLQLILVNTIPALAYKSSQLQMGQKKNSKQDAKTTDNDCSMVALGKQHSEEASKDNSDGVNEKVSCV
Experimental: (§1) HEK293T cells were grown in DMEM, supplemented with fetal bovine serum (FBS) and penicillin-streptomycin. Cells were trans-fected with Effectene according to the manufacturer's instructions. Prior to imaging, cells were washed with Hank's Balanced Salt Solution (HBSS) supplemented with 2 mM MgCl2 and 2 mM CaCl2). All images were collected in HBSS containing Mg^2+ and Ca^2+.
(§2) HEK293T cells were plated and transfected concurrently 24 h prior to each experiment using the QIAGEN Effectene Transfection
(§3) Dose-response experiments were performed using an Automate Perfusion System. Cells (HEK293T) were grown on 12 mm cover-slips and transfected with psychLight1. The coverslips were then placed into a coverslip holder and washed with 5 mL of HBSS containing 2 mM MgCl2 and 2 mM CaCl2). Cells were perfused first with 5 mL of 0.1% DMSO, then drugs in ascending concentrations from 1 pM to […] were added, with the concentration of DMSO being held constant at 0.10%. […] For the competition studies described in FIG. 19, HEK293T cells were prepared as described above; however, the cells were first exposed to 5 mL of 0.2% DMSO. […] Analysis was performed by taking 3 ROIs on the cell membrane using ImageJ and calculating the mean intensity for each ROI across the time-points. Finally, the DF/F was calculated using the average of the baseline (0.1 or 0.2% DMSO) and the average intensity between each dosage over the average of the baseline.

psychLight2 [3] = assay: PSYLI2 high-content imaging, agonist mode; assay type: cell-based, human
Experimental: (§4) High-Content Imaging Experiments. Glass bottom 96-well plates (P96-1.5H-N, Cellvis) were coated with 50 μg/mL of poly-D-lysine (Sigma, P6407-5MG) and 10 μg/mL laminin (Sigma, L2020) overnight in an incubator (37° C., 5% CO2). […] Immediately prior to an experiment, stock solutions of drugs in DMSO (10 mM) were first diluted 1:100 in imaging media distributed across an empty 96-well plate (treatment plate) in triplicates following a randomized plate map. […] Cells grown in a separate 96-well plate (assay plate) were gently washed (3×) with imaging media, and the wells were filled with an appropriate volume of imaging media for the respective experiment (vide infra).
(§5) For agonist mode, […] of imaging media was added to each well of the assay plate. Wells were then imaged on a Lecia DMi8 using Leica Application Suite X (V3.6.0.20104) at 40×(N.A.=0.6) with 5 regions of interest (ROI) taken per well using the default 5 ROI pattern for each well with no bias to location and no overlap of the ROIs (exposure=350 ms, LED power=80%). Next, 20 μL from the treatment plate was transferred to the assay plate for a total 1:1000 dilution of drug (10 μM drug, 0.1% DMSO). […] All final concentrations of drugs were 10 μM (0.1% DMSO) in agonist mode unless stated otherwise. After 5 min of incubation, the same sites were re-imaged using the same settings.
Once imaging was complete, the images were exported, put into a stack, and analyzed using ImageJ Fiji (ver. 1.51v) by using the rectangle function to draw an ROI around the cell membrane (one cell per image) on both the pre- and posttreatment images. ROI sizes within each plate were kept the same and saved to the ROI manager in ImageJ (ctrl+T). Images were then measured using the “multi measure” function in the ROI manager. Measurements were saved and exported. Analysis of the data was done by taking the average of each individual well's ROIs before and after drugs were added. Then the ΔF/F values for each well were calculated using the following equation: […]
as §4, with “Glass” for “High-Content Imaging Experiments. Glass”, “50 µg/mL” for “50 μg/mL”, “10 pg/mL of” for “10 μg/mL”, “were” for “were first”, “in triplicate” for “in triplicates”, “washed 3×” for “washed (3×)”
as §5, with “agonist mode experiments,” for “agonist mode,”, “media were” for “media was”, “20 pL” for “20 μL”, “plate containing” for “plate for”, “a” for “a total”, “(10 pM as the final concentration in” for “(10 μM drug,”
Once imaging was complete, the images were exported, and analyzed using self-written MATLAB script. Script will be deposit on to Github. In short, segmentation was performed on individual images and a mask highlighting the membrane of the HEK293T cells was generated. Pixel intensities were obtained from the mask-highlighted area and exported into Excel. The ΔF/F values for each well were calculated using the following equation: […]

psychLight1 [4] = assay: cell-based; assay type: cell-based, human; conditions: for EC50: read-out: EC50 (half maximal effective concentration)
Experimental: as §1, §2, §3

psychLight2 [5] = conditions: mouse, in vivo
Excerpt: Three animals were used for experiments measuring sensor activity in the prelimbic cortex.

psychLight [6] = assay type: cell-based, human
[7] = system: psychLight2 response to electrically evoked 5-HT release; set-up: species or system mouse
psychLight [8] = assay: Schild regression analysis in PSYLI2 cells; assay type: cell-based, human
Experimental: During imaging, […] of imaging media were added to each well of the assay plate. Wells were then imaged on a Lecia DMi8 using Leica Application Suite X (V3.6.0.20104) at 40×(N.A.=0.6) with 5 regions of interest (ROI) taken per well using the default 5 ROI pattern for each well with no bias to location and no overlap of the ROIs (exposure=350 ms, LED power=80%). Next, […] from the treatment plate was transferred to the assay plate for a final 1:1000 dilution of drug. All final drug treatments contained 0.1% DMSO. After 5 min of incubation, the same sites were re-imaged using the same settings. The data analysis method was the same as in agonist and antagonist mode.

dLight = assay type: cell-based
[9] = HEK293T cells expressing psychLight
[10] = 10 μM compound, hit limit 1 SD from vehicle

With `CN(C)CCc1c[nH]c2ccc(Br)cc12` [5-Br-DMT, 5-bromo-N,N-dimethyltryptamine] the ligand score (psychLight2 [1]) was “negative ligand score” and the “head-twitch response (HTR)” value (C57BL/6J mice) was “did not induce head-twitches at any dose; also recorded: failed to induce HTRs at any dose”.

`CN(C)CCc1c[nH]c2ccc(Cl)cc12` [5-Cl-DMT, 5-chloro-N,N-dimethyltryptamine] was tested, and the ligand score (psychLight2 [1]) was “positive ligand scores” and the “head-twitch response (HTR)” value (C57BL/6J mice) was “produced robust HTRs”.

In the case of `CN(C)CCc1c[nH]c2ccc(F)cc12` [5-F-DMT, 5-flouo-N,N-dimethyltryptamine], the ligand score (psychLight2 [1]) is reported as “positive ligand scores” and the “head-twitch response (HTR)” value (C57BL/6J mice) is reported as “produced robust HTRs”.

For `NCCc1c[nH]c2ccc(O)cc12` [5-HT, serotonin], the “fluorescence intensity change, confocal with psychLight1” value (shortened to “fluorescence intensity change, confocal”) (psychLight1 [2]) was 77.3±2.4%, the “PSYLI2 response (positive and negative controls)” value (psychLight2 [3]) was 44.8±0.8% and the “fluorescence intensity change, high content imager with psychLight2” value (psychLight2 [3]) was 38.2±2.4%. The “ΔF/F PSYLI2 fluorescence, panel of tryptamines” value (shortened to “ΔF/F PSYLI2 fluorescence, panel”) (psychLight2 [3]) was 46.3%±1.4%.

With `COc1ccc2[nH]cc(CCN(C)C)c2c1` [5-MeO, 5-methoxy-N,N-dimethyltrytamine] the Emax (psychLight1 [2]) was 48.4%, the “fluorescence intensity change, confocal” value (psychLight1 [4]) was 48.4±3.1% and the EC50 (psychLight1 [4]) was 157 nM. The “head-twitch response during fiber photometry” value (psychLight2 [5]) was “concomitant increase in HTR”, the “psychLight2 fluorescence in prelimbic cortex after injection” value (psychLight2 [5]) was “sharp increase in fluorescence” and the “fluorescence intensity change, high content imager with psychLight2” value (psychLight2 [3]) was 24.1±4.6%.

In the case of `CN(C)CCc1c[nH]c2ccc(O)cc12` [BUFO, N,N-dimethylserotonin], the “ΔF/F PSYLI2 fluorescence, panel” value (psychLight2 [3]) is reported as 22.3%±2.8%.

For `CN(C)CCc1c[nH]c2ccccc12` [DMT, N,N-dimethyltrytamine], the Emax (psychLight1 [2]; HEK-293T) was 12.4%, the EC50 (psychLight1 [4]) was 627 nM and the “screen outcome in agonist mode” value (psychLight2 [3]) was “false negative”.

With `NCCCC(=O)O` [GABA, y-aminobutyric acid] the “response of psychLight to neurotransmitters” value (shortened to “response of psychLight”) (psychLight [6]; [9]) was “do not respond”.

For `O=C(c1ccc(F)cc1)C1CCN(CCn2c(=O)[nH]c3ccccc3c2=O)CC1` [KETSN, ketanserin], the “block of 5-HT-induced activation of psychLight” value (psychLight1 [2]) was “able to block 5-HT-induced activation of psychLight”, the “effect on psychLight fluorescence” value (psychLight1 [2]) was “neutral antagonists; also recorded: minimal effect on psychLight1 fluorescence or slightly quenched the sensor” and the “fluorescence intensity change, confocal” value (psychLight1 [2]) was −1.7±0.3%. For the same molecule, the “PSYLI2 response (positive and negative controls)” value (psychLight2 [3]) was −12.7±0.5%, the “fluorescence intensity change, high content imager with psychLight2” value (psychLight2 [3]) was −3.5±1.6% and the “block of psychLight fluorescence to electrically evoked 5-HT transients” value (“block of psychLight fluorescence” below) [7] was “sufficient to block psychLight fluorescence”. For the same molecule, the “peak response to field stimulation of BNST slices” value ([7]; KETSN 10 μM, N=5 slices) was 0±0.36%.

For `CCN(CC)C(=O)N[C@H]1C=C2c3cccc4[nH]cc(c34)C[C@H]2N(C)C1` [LIS, lisuride], the “Schild regression (pA2) outcome” value (psychLight [8]) was “potent psychLight competitive antagonists”.

`CCN(CC)C(=O)[C@@H]1C=C2c3cccc4[nH]cc(c34)C[C@H]2N(C)C1` [LSD, lysergic acid diethylamide] was tested, and the “activation of dLight” value (dLight) was “both activated dLight to the same extent”.

`CNCCc1c[nH]c2ccc(O)cc12` [N-5-HT, N-methylserotonin] was tested, and the “ΔF/F PSYLI2 fluorescence, panel” value (psychLight2 [3]) was 24.6%±1.7%.

`c1ccc(C2(N3CCCCC3)CCCCC2)cc1` [PCP, Phencyclidine] was tested, and the ligand score (psychLight2 [1]) was about 0 and the “screen outcome in agonist mode” value (psychLight2 [3]) was “did not activate the sensor”.

In the case of `C[C@H](Cc1ccccc1)N(C)C` [R-dimethamphetamine, (R)-dimethamphetamine], the “screen outcome in agonist mode” value (psychLight2 [3]; [10]) is reported as “potential hallucinogenic hits”.

In the case of `CN1CCc2cccc3c2[C@H]1Cc1ccc(O)c(O)c1-3` [apomorphine, R-(−)-apomorphine], the “Schild regression (pA2) outcome” value (psychLight [8]) is reported as “potent psychLight competitive antagonists”.

For `CN1[C@@H]2CC[C@H]1C[C@@H](OC(c1ccccc1)c1ccccc1)C2` [benztropine], the “Schild regression (pA2) outcome” value (psychLight [8]) was “potent psychLight competitive antagonists”.

With `NCCc1ccc(O)c(O)c1` [dopamine] the “response of psychLight” value (psychLight [6]) was “do not respond”.

`N[C@@H](CCC(=O)O)C(=O)O` [glutamate, L-glutamic acid] was tested, and the “response of psychLight” value (psychLight [6]; [9]) was “do not respond”.

With `CN1C2CCCC1CC(NC(=O)c1nn(C)c3ccccc13)C2` (centres unmarked) [granisetron] the “block of psychLight fluorescence” value [7] was “sufficient to block psychLight fluorescence”.

For `NC[C@H](O)c1ccc(O)c(O)c1` [norepinephrine], the “response of psychLight” value (psychLight [6]; [9]) was “do not respond”.

For `COC(=O)[C@@H]1C[C@H](OC(C)=O)C(=O)[C@H]2[C@@]1(C)CC[C@H]1C(=O)O[C@H](c3ccoc3)C[C@]21C` [salvinorin A], the ligand score (psychLight2 [1]) was about 0 and the “screen outcome in agonist mode” value (psychLight2 [3]; [10]) was “did not activate the sensor”.

For `NCCc1c[nH]c2ccccc12` [tryptamine], the “ΔF/F PSYLI2 fluorescence, panel” value (psychLight2 [3]) was “robust response”.

For tetrodotoxin citrate, the “block of psychLight fluorescence” value [7] was “sufficient to block psychLight fluorescence”.
